{"source": "ChEMBL document CHEMBL1151480", "about": "“Endiandric Acid Analogues from the Roots of Beilschmiedia erythrophloia” (2009)", "key": {"[1]": {"system": "Mycobacterium tuberculosis", "test": "Antitubercular activity against Mycobacterium tuberculosis H37Rv after 2 weeks by proportion method", "format": "functional", "settings": "336 h"}, "[2]": {"system": "P388", "test": "Growth inhibition of mouse P388 cells", "format": "functional, cell-based"}}, "note": "The source made the active and inactive calls. No cut-off for these calls is given here."}
{"smiles": "CC[C@@H](CO)NCCN[C@@H](CC)CO", "note": "[ETHAMBUTOL]", "values": [{"measurement": "MIC", "setting": "[1]", "result": 6.25, "unit": "µg/mL"}]}
{"smiles": "COC(=O)[C@@H]1C=C[C@@H]2C[C@H]3[C@H](CCCCCCCc4ccccc4)[C@H]4C=C[C@@H]1[C@@H]2[C@H]43", "note": "[ERYTHROPHLOIN C]", "values": [{"measurement": "MIC", "setting": "[1]", "result": 50, "unit": "µg/mL"}]}
{"smiles": "C=C1CC[C@H]2O[C@]2(C)[C@H](O)C[C@@H]2[C@@H]1CC2(C)C", "note": "[SUBEROSOL B]", "values": [{"measurement": "growth inhibition (GI)", "setting": "[2]", "result": "Active"}, {"measurement": "MIC", "setting": "[1]", "result": 28.9, "unit": "µg/mL"}]}
